Test results from patent US12534474B2, “Dihydrofuropyridine derivatives as rho-kinase inhibitors” (CHIESI FARMACEUTICI S.P.A., priority 2020, dated 2026).

Legend:
Type in all cases: biochemical
ROCK2 = ROCK2 (Homo sapiens, UniProt O75116); experiment: In vitro Rho kinase inhibitory activity assay, ADP-Glo, Method B (ATP 200 μM); settings: read-out: Method B ROCK 2 (Ki)
Procedure: (§1) In Vitro Inhibitory Activity Assay Description (Method B)
(§2) The effectiveness of compounds of the present invention to inhibit Rho kinase activity can be determined in a 10 μL assay containing 40 mM Tris pH7.5, 20 mM MgCl2 0.1 mg/mL BSA, 50 μM DTT and 2.5 μM peptide substrate (Myelin Basic Protein) using an ADP-Glo kit (Promega). Compounds were dissolved in DMSO such that the final concentration of DMSO was 1% in the assay. All reactions/incubations are performed at 25° C. Compound (2 ul) and either Rho kinase 1 or 2 (4 μL) were mixed and incubated for 30 min. Reactions were initiated by addition of ATP (4 μL) such that the final concentration of ATP in the assay was 200 μM. After a 1 hour incubation 10 μL of ADP-Glo Reagent was added and after a further 45 minute incubation 20 ul of Kinase Detection Buffer was added and the mixture incubated for a further 30 minutes. The luminescent signal was measured on a luminometer. […] Compounds were tested in dose-response format and the inhibition of kinase activity was calculated at each concentration of compound. To determine the IC50 (concentration of compound required to inhibit 50% of the enzyme activity) data were fit to a plot of % inhibition vs Log 10 compound concentration using a sigmoidal fit with a variable slope and fixing the maximum to 100% and the minimum to 0%. To determine the Ki values the Cheng-Prusoff equation was utilized (Ki=IC50/(1+[S]/Km).

ROCK1 = ROCK1 (Homo sapiens, UniProt Q13464); experiment: as above; settings: read-out: Method B ROCK 1 (Ki)
Chain of ROCK1 (Q13464 whole entry): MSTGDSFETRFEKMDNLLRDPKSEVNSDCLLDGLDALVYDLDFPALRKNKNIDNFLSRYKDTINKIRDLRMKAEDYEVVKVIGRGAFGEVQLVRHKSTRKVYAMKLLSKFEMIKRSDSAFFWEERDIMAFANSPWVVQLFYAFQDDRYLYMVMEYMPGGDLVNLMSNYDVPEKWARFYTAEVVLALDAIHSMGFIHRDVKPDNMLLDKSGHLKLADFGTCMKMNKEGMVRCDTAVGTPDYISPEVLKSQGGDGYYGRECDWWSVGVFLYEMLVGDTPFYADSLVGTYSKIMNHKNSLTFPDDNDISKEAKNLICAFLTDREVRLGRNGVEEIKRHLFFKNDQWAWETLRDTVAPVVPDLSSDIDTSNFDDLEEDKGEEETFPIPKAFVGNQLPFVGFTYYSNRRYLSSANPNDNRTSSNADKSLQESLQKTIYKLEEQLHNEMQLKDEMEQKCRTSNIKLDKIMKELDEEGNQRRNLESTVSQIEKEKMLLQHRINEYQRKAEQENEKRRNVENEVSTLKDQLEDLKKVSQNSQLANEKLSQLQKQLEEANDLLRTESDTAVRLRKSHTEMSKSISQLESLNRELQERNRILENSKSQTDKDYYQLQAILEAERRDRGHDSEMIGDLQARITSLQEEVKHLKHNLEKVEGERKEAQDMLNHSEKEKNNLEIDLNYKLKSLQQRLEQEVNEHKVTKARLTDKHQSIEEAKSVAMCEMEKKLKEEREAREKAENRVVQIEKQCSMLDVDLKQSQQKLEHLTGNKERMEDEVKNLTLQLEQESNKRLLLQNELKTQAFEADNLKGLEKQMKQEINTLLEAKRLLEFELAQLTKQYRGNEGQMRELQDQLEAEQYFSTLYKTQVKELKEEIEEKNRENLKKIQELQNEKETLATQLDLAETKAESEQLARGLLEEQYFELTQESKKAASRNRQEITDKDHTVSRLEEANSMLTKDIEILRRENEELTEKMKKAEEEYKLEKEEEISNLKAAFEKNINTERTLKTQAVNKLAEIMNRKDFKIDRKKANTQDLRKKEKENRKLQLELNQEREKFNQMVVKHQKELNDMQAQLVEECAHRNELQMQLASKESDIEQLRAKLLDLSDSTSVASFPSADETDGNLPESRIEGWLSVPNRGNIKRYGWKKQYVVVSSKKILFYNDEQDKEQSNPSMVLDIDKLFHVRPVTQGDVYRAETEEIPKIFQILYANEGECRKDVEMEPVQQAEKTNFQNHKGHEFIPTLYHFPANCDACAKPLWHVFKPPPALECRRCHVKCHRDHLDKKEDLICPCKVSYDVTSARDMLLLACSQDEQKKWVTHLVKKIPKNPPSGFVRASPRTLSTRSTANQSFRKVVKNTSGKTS
Procedure: as §1, §2

PKA = PKA (Homo sapiens, UniProt P17612); experiment: In vitro inhibitory activity assay for PKA, ADP-Glo, reported as selectivity ratio vs ROCK2; settings: Ki for PKA divided by Ki of ROCK2 (Method B)
Procedure: In Vitro Inhibitory Activity Assay Description for PKA
The effectiveness of compounds of the present invention to inhibit PKA activity can be determined in a 10 μL assay containing 40 mM Tris pH7.5, 20 mM MgCl2 0.1 mg/mL BSA, 50 μM DTT and 260 μM peptide substrate (kemptide) using an ADP-Glo kit (Promega). Compounds were dissolved in DMSO such that the final concentration of DMSO was 1% in the assay. All reactions/incubations are performed at 25° C. Compound and PKA enzyme (6 μL) were mixed and incubated for 30 min. Reactions were initiated by addition of ATP (4 μL) such that the final concentration of ATP in the assay was 10 μM. After a 30 minute incubation 10 μL of ADP-Glo Reagent was added and after a further 1 hour incubation 20 μL of Kinase Detection Buffer was added and the mixture incubated for a further 45 minutes. The luminescent signal was measured on a luminometer. […] Compounds were tested in dose-response format and the inhibition of kinase activity was calculated at each concentration of compound. To determine the IC50 (concentration of compound required to inhibit 50% of the enzyme activity) data were fit to a plot of % inhibition vs Log10 compound concentration using a sigmoidal fit with a variable slope and fixing the maximum to 100% and the minimum to 0%. To determine the Ki values the Cheng-Prusoff equation was utilized (Ki=IC50/(1+[S]/Km).
In vitro inhibitory activities for PKA were reported as selectivity ratio vs. ROCK2. Selectivity ratio PKA/ROCK2 was calculated by dividing the Ki value for PKA by Ki value of ROCK2 (Method B) and reported into table 1.

Chain of ROCK2 (O75116 whole entry): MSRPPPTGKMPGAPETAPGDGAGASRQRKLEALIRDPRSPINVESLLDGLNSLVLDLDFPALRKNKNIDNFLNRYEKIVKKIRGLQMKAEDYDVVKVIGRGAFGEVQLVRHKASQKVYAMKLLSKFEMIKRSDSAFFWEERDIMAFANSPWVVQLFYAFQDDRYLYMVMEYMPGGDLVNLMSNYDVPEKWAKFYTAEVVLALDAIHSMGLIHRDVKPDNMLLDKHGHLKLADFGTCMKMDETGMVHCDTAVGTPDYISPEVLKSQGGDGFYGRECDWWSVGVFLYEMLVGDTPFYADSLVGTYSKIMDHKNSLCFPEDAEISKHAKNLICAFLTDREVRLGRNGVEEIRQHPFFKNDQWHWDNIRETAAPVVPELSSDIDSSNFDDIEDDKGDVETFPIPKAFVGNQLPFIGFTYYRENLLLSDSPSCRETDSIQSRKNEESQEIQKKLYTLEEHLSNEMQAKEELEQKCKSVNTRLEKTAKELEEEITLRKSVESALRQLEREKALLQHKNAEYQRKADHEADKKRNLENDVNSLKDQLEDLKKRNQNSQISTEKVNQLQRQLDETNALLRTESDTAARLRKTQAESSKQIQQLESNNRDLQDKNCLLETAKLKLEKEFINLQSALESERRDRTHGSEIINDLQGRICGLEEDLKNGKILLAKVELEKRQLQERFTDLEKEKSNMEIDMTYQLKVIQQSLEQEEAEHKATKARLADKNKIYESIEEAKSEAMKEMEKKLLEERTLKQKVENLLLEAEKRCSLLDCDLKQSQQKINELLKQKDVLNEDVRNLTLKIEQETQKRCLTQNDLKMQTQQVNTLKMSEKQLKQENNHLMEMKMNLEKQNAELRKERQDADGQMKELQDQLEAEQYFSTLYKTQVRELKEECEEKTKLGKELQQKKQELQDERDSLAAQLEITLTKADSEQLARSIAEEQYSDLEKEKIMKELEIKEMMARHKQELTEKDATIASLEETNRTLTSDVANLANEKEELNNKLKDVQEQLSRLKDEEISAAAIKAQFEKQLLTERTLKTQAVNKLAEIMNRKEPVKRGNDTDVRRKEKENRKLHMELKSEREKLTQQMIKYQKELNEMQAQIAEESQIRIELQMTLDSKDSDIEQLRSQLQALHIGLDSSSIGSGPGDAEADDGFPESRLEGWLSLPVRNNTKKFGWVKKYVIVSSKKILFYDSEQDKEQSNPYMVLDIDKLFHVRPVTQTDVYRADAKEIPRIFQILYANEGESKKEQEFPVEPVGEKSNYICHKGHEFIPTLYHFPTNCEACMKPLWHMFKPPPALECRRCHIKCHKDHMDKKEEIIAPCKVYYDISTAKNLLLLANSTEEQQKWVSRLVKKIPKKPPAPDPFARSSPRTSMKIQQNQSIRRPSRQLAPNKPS

Compound | Ki (ROCK2) | Ki (ROCK1) | Ratio (PKA/ROCK2) (PKA)
COc1ccc(NC(=O)c2cccc(CNc3ncc(-c4ccncc4)c4c3CCO4)c2)nc1 [Example 14, N-(5-methoxypyridin-2-yl)-3-(((7-(pyridin-4-yl)-2,3-dihydrofuro[3,2-c]pyridin-4-yl)amino)methyl)benzamide] | ≤ 3 nM | ≤ 3 nM | *** (ratio≥10)
Cc1cc(CNC(=O)c2cccc(CNc3ncc(-c4ccncc4)c4c3CCO4)c2)no1 [Example 2, N-((5-methylisoxazol-3-yl)methyl)-3-(((7-(pyridin-4-yl)-2,3-dihydrofuro[3,2-c]pyridin-4-yl)amino)methyl)benzamide] | ≤ 3 nM | 3 to 30 nM | *** (ratio≥10)
O=C(NCCC1CCN(C2COC2)CC1)c1cccc(CNc2ncc(-c3ccncc3)c3c2CCO3)c1 [Example 42, N-(2-(1-(Oxetan-3-yl)piperidin-4-yl)ethyl)-3-(((7-(pyridin-4-yl)-2,3-dihydrofuro[3,2-c]pyridin-4-yl)amino)methyl)benzamide] | ≤ 3 nM | ≤ 3 nM | *** (ratio≥10)
O=C(NC1CC2CN(C3COC3)CC2C1)c1cccc(CNc2ncc(-c3ccncc3)c3c2CCO3)c1 (single isomer, unassigned) [Example 43a, N-(2-(oxetan-3-yl)octahydrocyclopenta[c]pyrrol-5-yl)-3-(((7-(pyridin-4-yl)-2,3-dihydrofuro[3,2-c]pyridin-4-yl)amino)methyl)benzamide] | ≤ 3 nM | ≤ 3 nM | *** (ratio≥10)
COc1cc(NC(=O)c2cccc(CNc3ncc(-c4ccncc4)c4c3CCO4)c2)ncn1 [Example 31, N-(6-Methoxypyrimidin-4-yl)-3-(((7-(pyridin-4-yl)-2,3-dihydrofuro[3,2-c]pyridin-4-yl)amino)methyl)benzamide] | ≤ 3 nM | ≤ 3 nM | *** (ratio≥10)
O=C(NCCCF)c1cccc(CNc2ncc(-c3ccncc3)c3c2CCO3)c1 [Example 4, N-(3-fluoropropyl)-3-(((7-(pyridin-4-yl)-2,3-dihydrofuro[3,2-c]pyridin-4-yl)amino)methyl)benzamide] | 3 to 30 nM | 3 to 30 nM | *** (ratio≥10)
O=C(NC1CC1)c1cccc(CNc2ncc(-c3ccncc3)c3c2CCO3)c1 [Example 16, N-cyclopropyl-3-(((7-(pyridin-4-yl)-2,3-dihydrofuro[3,2-c]pyridin-4-yl)amino)methyl)benzamide] | 3 to 30 nM | 3 to 30 nM | *** (ratio≥10)
O=C(NCc1cncnc1)c1cccc(CNc2ncc(-c3ccncc3)c3c2CCO3)c1 [Example 5, 3-(((7-(pyridin-4-yl)-2,3-dihydrofuro[3,2-c]pyridin-4-yl)amino)methyl)-N-(pyrimidin-5-ylmethyl)benzamide] | 3 to 30 nM | 3 to 30 nM | *** (ratio≥10)
O=C(NCC1(O)CC1)c1cccc(CNc2ncc(-c3ccncc3)c3c2CCO3)c1 [Example 9, N-((1-hydroxycyclopropyl)methyl)-3-(((7-(pyridin-4-yl)-2,3-dihydrofuro[3,2-c]pyridin-4-yl)amino)methyl)benzamide] | 3 to 30 nM | 3 to 30 nM | *** (ratio≥10)
O=C(NCC1CC1)c1cccc(CNc2ncc(-c3ccncc3)c3c2CCO3)c1 [Example 12, N-(cyclopropylmethyl)-3-(((7-(pyridin-4-yl)-2,3-dihydrofuro[3,2-c]pyridin-4-yl)amino)methyl)benzamide] | 3 to 30 nM | ≤ 3 nM | ** (5≤ratio<10)
O=C(NC1CC(CO)C1)c1cccc(CNc2ncc(-c3ccncc3)c3c2CCO3)c1 (centres unmarked) [Example 13, N-(3-(hydroxymethyl)cyclobutyl)-3-(((7-(pyridin-4-yl)-2,3-dihydrofuro[3,2-c]pyridin-4-yl)amino)methyl)benzamide] | ≤ 3 nM | 3 to 30 nM | *** (ratio≥10)
CC(=O)N1CCC(CCNC(=O)c2cccc(CNc3ncc(-c4ccncc4)c4c3CCO4)c2)CC1 [Example 44, N-(2-(1-Acetylpiperidin-4-yl)ethyl)-3-(((7-(pyridin-4-yl)-2,3-dihydrofuro[3,2-c]pyridin-4-yl)amino)methyl)benzamide] | ≤ 3 nM | ≤ 3 nM | *** (ratio≥10)
O=C(NCc1cocn1)c1cccc(CNc2ncc(-c3ccncc3)c3c2CCO3)c1 [Example 8, N-(oxazol-4-ylmethyl)-3-(((7-(pyridin-4-yl)-2,3-dihydrofuro[3,2-c]pyridin-4-yl)amino)methyl)benzamide] | ≤ 3 nM | 3 to 30 nM | *** (ratio≥10)
Cn1cnc(CNC(=O)c2cccc(CNc3ncc(-c4ccncc4)c4c3CCO4)c2)c1 [Example 3, N-((1-methyl-1H-imidazol-4-yl)methyl)-3-(((7-(pyridin-4-yl)-2,3-dihydrofuro[3,2-c]pyridin-4-yl)amino)methyl)benzamide] | ≤ 3 nM | 3 to 30 nM | *** (ratio≥10)
O=C(NC1CCOCC1)c1cccc(CNc2ncc(-c3ccncc3)c3c2CCO3)c1 [Example 7, 3-(((7-(pyridin-4-yl)-2,3-dihydrofuro[3,2-c]pyridin-4-yl)amino)methyl)-N-(tetrahydro-2H-pyran-4-yl)benzamide] | 3 to 30 nM | 3 to 30 nM | *** (ratio≥10)
CN1CCOC(CNC(=O)c2cccc(CNc3ncc(-c4ccncc4)c4c3CCO4)c2)C1 (centres unmarked) [Example 10, N-((4-methylmorpholin-2-yl)methyl)-3-(((7-(pyridin-4-yl)-2,3-dihydrofuro[3,2-c]pyridin-4-yl)amino)methyl)benzamide] | ≤ 3 nM | ≤ 3 nM | *** (ratio≥10)
Cn1ccc(CNC(=O)c2cccc(CNc3ncc(-c4ccncc4)c4c3CCO4)c2)n1 [Example 19, N-((1-methyl-1H-pyrazol-3-yl)methyl)-3-(((7-(pyridin-4-yl)-2,3-dihydrofuro[3,2-c]pyridin-4-yl)amino)methyl)benzamide] | ≤ 3 nM | 3 to 30 nM | *** (ratio≥10)
O=C(Nc1ccncn1)c1cccc(CNc2ncc(-c3ccncc3)c3c2CCO3)c1 [Example 18, 3-(((7-(pyridin-4-yl)-2,3-dihydrofuro[3,2-c]pyridin-4-yl)amino)methyl)-N-(pyrimidin-4-yl)benzamide] | ≤ 3 nM | ≤ 3 nM | *** (ratio≥10)
O=C(NC1CC2CN(C3COC3)CC2C1)c1cccc(CNc2ncc(-c3ccncc3)c3c2CCO3)c1 (single isomer, unassigned) [Example 43b, N-(2-(oxetan-3-yl)octahydrocyclopenta[c]pyrrol-5-yl)-3-(((7-(pyridin-4-yl)-2,3-dihydrofuro[3,2-c]pyridin-4-yl)amino)methyl)benzamide] | ≤ 3 nM | ≤ 3 nM | *** (ratio≥10)
O=C(Nc1ccncc1)c1cccc(CNc2ncc(-c3ccncc3)c3c2CCO3)c1 [Example 11, N-(pyridin-4-yl)-3-(((7-(pyridin-4-yl)-2,3-dihydrofuro[3,2-c]pyridin-4-yl)amino)methyl)benzamide] | ≤ 3 nM | ≤ 3 nM | *** (ratio≥10)
CN(C)CCn1cc(C(=O)Nc2cccc(CNc3ncc(-c4ccncc4)c4c3CCO4)c2)cn1 [Example 41, 1-(2-(Dimethylamino)ethyl)-N-(3-(((7-(pyridin-4-yl)-2,3-dihydrofuro[3,2-c]pyridin-4-yl)amino)methyl)phenyl)-1H-pyrazole-4-carboxamide] | ≤ 3 nM | 3 to 30 nM | *** (ratio≥10)
CNC(=O)c1cccc(CNc2ncc(-c3ccncc3F)c3c2CCO3)c1 [Example 45, 3-(((7-(3-Fluoropyridin-4-yl)-2,3-dihydrofuro[3,2-c]pyridin-4-yl)amino)methyl)-N-methylbenzamide] | 3 to 30 nM | 3 to 30 nM | 
